Molecular target: hQC (Homo sapiens, UniProt Q16769)
Experiment: Inhibitor assay for glutaminyl cyclase activity (fluorometric, H-Gln-βNA / H-Gln-AMC)
Format: biochemical
Settings: read-out: IC50
Procedure, shortened: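 Ki values came from fitting progress curves to a competitive inhibition model; rapid screens used 4 mM inhibitor with substrate at KM. QC activity was read at 30 °C via auxiliary pyroglutamyl aminopeptidase releasing βNA (0.2 mM H-Gln-βNA, 0.2 M Tris pH 8.0, 20 mM EDTA) or AMC (0.05 M Tris pH 8.0, 5 mM EDTA).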

Sequence of hQC (Q16769 29-361): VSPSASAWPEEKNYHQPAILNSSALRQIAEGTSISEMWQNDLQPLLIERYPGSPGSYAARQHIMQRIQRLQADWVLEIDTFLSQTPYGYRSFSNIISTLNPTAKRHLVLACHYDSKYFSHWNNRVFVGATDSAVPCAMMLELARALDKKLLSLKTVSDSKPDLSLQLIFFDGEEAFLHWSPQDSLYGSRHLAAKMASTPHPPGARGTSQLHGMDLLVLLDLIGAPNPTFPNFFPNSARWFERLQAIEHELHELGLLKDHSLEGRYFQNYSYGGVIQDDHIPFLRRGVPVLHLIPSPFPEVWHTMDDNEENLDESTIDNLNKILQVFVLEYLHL

| Structure (SMILES) | IC50 |
| --- | --- |
| CCCC(=O)C1=C(O)C(=O)N(c2ccc3[nH]cnc3c2)C1c1c[nH]c2ccccc12 (stereo not drawn) [Compound 268, 1-(1H-Benzoimidazol-5-yl)-4-butyryl-3-hydroxy-5-(1H-indol-3-yl)-1,5-dihydro-pyrrol-2-one] | 8.59 µM |
| CCCC(=O)C1=C(O)C(=O)N(c2ccc3[nH]cnc3c2)C1c1cc(C(F)(F)F)cc(C(F)(F)F)c1 (stereo not drawn) [Compound 335, 1-(1H-Benzoimidazol-5-yl)-5-(3,5-bis-trifluoromethyl-phenyl)-4-butyryl-3-hydroxy-1,5-dihydro-pyrrol-2-one] | 6.79 µM |
| CCC1=C(O)C(=O)N(c2ccc3[nH]cnc3c2)C1c1ccnc2ccccc12 (stereo not drawn) [Compound 302, 1-(1H-Benzoimidazol-5-yl)-4-ethyl-3-hydroxy-5-quinolin-4-yl-1,5-dihydro-pyrrol-2-one] | 2.92 µM |
| O=C1C(O)=C(c2ccccc2)C(c2ccccc2)N1CCCn1ccnc1 (stereo not drawn) [Compound 92, 3-Hydroxy-1-(3-imidazol-1-yl-propyl)-4,5-diphenyl-1,5-dihydro-pyrrol-2-one] | 3.1 µM |
| O=C(O)CC1=C(O)C(=O)N(c2ccc3[nH]cnc3c2)C1c1c(F)ccc(Cl)c1F (stereo not drawn) [Compound 358, [1-(1H-Benzoimidazol-5-yl)-2-(3-chloro-2,6-difluoro-phenyl)-4-hydroxy-5-oxo-2,5-dihydro-1H-pyrrol-3-yl]-acetic acid] | 4.54 µM |
| COc1ccc(C2C(c3cccc(O)c3)=C(O)C(=O)N2CCCn2ccnc2)cc1 (stereo not drawn) [Compound 13, 3-Hydroxy-4-(3-hydroxy-phenyl)-1-(3-imidazol-1-yl-propyl)-5-(4-methoxy-phenyl)-1,5-dihydro-pyrrol-2-one] | 2.2 µM |
| CC(C)C1=C(O)C(=O)N(CCCn2ccnc2)C1c1cccc(Cl)c1 (stereo not drawn) [Compound 73, 5-(3-Chloro-phenyl)-3-hydroxy-1-(3-imidazol-1-yl-propyl)-4-isopropyl-1,5-dihydro-pyrrol-2-one] | 3.1 µM |
| O=C(C1=C(O)C(=O)N(c2ccc3[nH]cnc3c2)C1c1ncc[nH]1)C1CCCCC1 (stereo not drawn) [Compound 435, 1-(1H-Benzoimidazol-5-yl)-4-cyclohexanecarbonyl-3-hydroxy-5-(1H-imidazol-2-yl)-1,5-dihydro-pyrrol-2-one] | 6.97 µM |
| Cc1ccc2c(C3C(c4c[nH]c5ccccc45)=C(O)C(=O)N3CCCn3ccnc3)c[nH]c2c1 (stereo not drawn) [Compound 130, 3-Hydroxy-1-(3-imidazol-1-yl-propyl)-4-(1H-indol-3-yl)-5-(6-methyl-1H-indol-3-yl)-1,5-dihydro-pyrrol-2-one] | 1.3 µM |
| CC(C)CC(=O)C1=C(O)C(=O)N(c2ccc3[nH]cnc3c2)C1c1cn(C)c2ccccc12 (stereo not drawn) [Compound 278, 1-(1H-Benzoimidazol-5-yl)-3-hydroxy-4-(3-methyl-butyryl)-5-(1-methyl-1H-indol-3-yl)-1,5-dihydro-pyrrol-2-one] | 5.35 µM |
| CCCCCC(=O)C1=C(O)C(=O)N(c2ccc3[nH]cnc3c2)C1c1ccc(C)o1 (stereo not drawn) [Compound 258, 1-(1H-Benzoimidazol-5-yl)-4-hexanoyl-3-hydroxy-5-(5-methyl-furan-2-yl)-1,5-dihydro-pyrrol-2-one] | 2.56 µM |
| CC1=C(O)C(=O)N(CCCn2ccnc2)C1c1ccccc1O (stereo not drawn) [Compound 28, 3-Hydroxy-5-(2-hydroxy-phenyl)-1-(3-imidazol-1-yl-propyl)-4-methyl-1,5-dihydro-pyrrol-2-one] | 0.4 µM |
| CC1=C(O)C(=O)N(CCCn2ccnc2)C1c1c[nH]c2ccccc12 (stereo not drawn) [Compound 39, 3-Hydroxy-1-(3-imidazol-1-yl-propyl)-5-(1H-indol-3-yl)-4-methyl-1,5-dihydro-pyrrol-2-one] | 0.4 µM |
| O=C(C1=C(O)C(=O)N(c2ccc3[nH]cnc3c2)C1C1CCOC1)C1CC1 (stereo not drawn) [Compound 317, 1-(1H-Benzoimidazol-5-yl)-4-cyclopropanecarbonyl-3-hydroxy-5-(tetrahydro-furan-3-yl)-1,5-dihydro-pyrrol-2-one] | 7.69 µM |
| CC(=O)C1=C(O)C(=O)N(c2ccc3[nH]cnc3c2)C1c1ccc(C)o1 (stereo not drawn) [Compound 415, 4-Acetyl-1-(1H-benzoimidazol-5-yl)-3-hydroxy-5-(5-methyl-furan-2-yl)-1,5-dihydro-pyrrol-2-one] | 1.39 µM |
